Consider five compounds from ChEMBL document CHEMBL6092142, “Discovery and preclinical profile of YK-2168, a differentiated selective CDK9 inhibitor in clinical development” (Bioorg Med Chem Lett, 2024).

Series [1] in a line: Selectivity index, ratio of IC50 for inhibition of CDK1 (unknown origin) to IC50 for inhibition of CDK9 (unknown origin).
Series [2] is described as follows: Selectivity index, ratio of IC50 for inhibition of CDK2 (unknown origin) to IC50 for inhibition of CDK9 (unknown origin).
In the next series the test system is MV4-11. In words: Antiproliferative activity against human MV4-11 cells assessed as cell viability. Type of series: functional, cell-based.
A short description of series [3]: Volume of distribution in CD-1 mouse at 2 mg/kg, iv. Particulars: CD-1, mouse, in vivo, read-out: Vd. Type of series: ADME, organism-based.
The nature of series [4]: Clearance in CD-1 mouse at 2 mg/kg, iv. Particulars: in vivo. The format is ADME, organism-based.
The nature of series [5]: Half life in CD-1 mouse at 2 mg/kg, iv. Particulars: CD-1, mouse, in vivo. The format is ADME, organism-based.
The nature of series [6]: AUC (0 to 24 hrs) in CD-1 mouse at 2 mg/kg, iv. Type of series: ADME, organism-based. Particulars: CD-1, mouse, in vivo.

On to `CN1CCC(c2cc3c(-c4cnn(CC5CC5)c4)c(Cl)cnc3[nH]2)CC1`, for which the results for the Ratio IC50 in series [1] and in series [2] were 35.9 and 11.2, respectively. For the same compound, the IC50 (commonly the midpoint of a concentration-inhibition curve) with MV4-11 turned out to be 35.7 nM.
As for `CC(C)N1CCC(c2cc3c(-c4cnn(CC5CC5)c4)c(Cl)cnc3[nH]2)CC1`, the values for the Ratio IC50 in series [1] and in series [2] were 73.3 and 32.4, respectively. For the same compound, the IC50 with MV4-11 amounted to 94.8 nM.
For `c1cc(-c2cnn(CC3CC3)c2)c2cc(C3CCNCC3)[nH]c2n1`, the Ratio IC50 was determined as 48.8 in series [1] and 51.8 in series [2]. For the same compound, the IC50 in the series on MV4-11 stood at 252 nM.
Consider `CC(=O)N[C@@H]1CCC[C@H](C(=O)Nc2cc(-c3cnn4c3CC(C)(C)C4)c(Cl)cn2)C1` [ZEMIRCICLIB], for which the volume of distribution (Vd) (as a rule, a proportionality between amount in the body and measured concentration, not a real space) in series [3] was found to be 0.52 L/kg. In addition, the clearance (as a rule, a measure of how efficiently the substance is removed, as volume per time) in series [4] was found to be 78.1 mL/min/kg. Moreover, the half-life (commonly the time needed for the level to fall by half in the phase considered) in series [5] is 6 min. For the same compound, the AUC(0-t) – broadly, the area under the concentration-time curve up to a stated or last time point – in series [6] worked out at 0.992 µM·h.
`Clc1cnc2[nH]c(C3CCNCC3)nc2c1-c1cnn(CC2CC2)c1`: the Ratio IC50 in series [2] was determined as 35.5. Besides, in the series on MV4-11, the IC50 was determined as 464 nM.
